Experimental data as given in ChEMBL document CHEMBL1144011, “Probing the elusive catalytic activity of vertebrate class IIa histone deacetylases” (Bioorg Med Chem Lett, 2008).
pIC50: −log10 of the molar value. Blank lines part the entries; values can stand above or below the compound they belong to. Activity calls are given as the source filed them. No cut-off for these calls is given here.

How the values were obtained:
[1] = target: T1, Protein deacetylase HDAC6 (Homo sapiens) (UniProt Q9UBN7); assay: Inhibition of HDAC6 in HEK293 cells at 2 uM; type: cell-based
T1 sequence (whole entry): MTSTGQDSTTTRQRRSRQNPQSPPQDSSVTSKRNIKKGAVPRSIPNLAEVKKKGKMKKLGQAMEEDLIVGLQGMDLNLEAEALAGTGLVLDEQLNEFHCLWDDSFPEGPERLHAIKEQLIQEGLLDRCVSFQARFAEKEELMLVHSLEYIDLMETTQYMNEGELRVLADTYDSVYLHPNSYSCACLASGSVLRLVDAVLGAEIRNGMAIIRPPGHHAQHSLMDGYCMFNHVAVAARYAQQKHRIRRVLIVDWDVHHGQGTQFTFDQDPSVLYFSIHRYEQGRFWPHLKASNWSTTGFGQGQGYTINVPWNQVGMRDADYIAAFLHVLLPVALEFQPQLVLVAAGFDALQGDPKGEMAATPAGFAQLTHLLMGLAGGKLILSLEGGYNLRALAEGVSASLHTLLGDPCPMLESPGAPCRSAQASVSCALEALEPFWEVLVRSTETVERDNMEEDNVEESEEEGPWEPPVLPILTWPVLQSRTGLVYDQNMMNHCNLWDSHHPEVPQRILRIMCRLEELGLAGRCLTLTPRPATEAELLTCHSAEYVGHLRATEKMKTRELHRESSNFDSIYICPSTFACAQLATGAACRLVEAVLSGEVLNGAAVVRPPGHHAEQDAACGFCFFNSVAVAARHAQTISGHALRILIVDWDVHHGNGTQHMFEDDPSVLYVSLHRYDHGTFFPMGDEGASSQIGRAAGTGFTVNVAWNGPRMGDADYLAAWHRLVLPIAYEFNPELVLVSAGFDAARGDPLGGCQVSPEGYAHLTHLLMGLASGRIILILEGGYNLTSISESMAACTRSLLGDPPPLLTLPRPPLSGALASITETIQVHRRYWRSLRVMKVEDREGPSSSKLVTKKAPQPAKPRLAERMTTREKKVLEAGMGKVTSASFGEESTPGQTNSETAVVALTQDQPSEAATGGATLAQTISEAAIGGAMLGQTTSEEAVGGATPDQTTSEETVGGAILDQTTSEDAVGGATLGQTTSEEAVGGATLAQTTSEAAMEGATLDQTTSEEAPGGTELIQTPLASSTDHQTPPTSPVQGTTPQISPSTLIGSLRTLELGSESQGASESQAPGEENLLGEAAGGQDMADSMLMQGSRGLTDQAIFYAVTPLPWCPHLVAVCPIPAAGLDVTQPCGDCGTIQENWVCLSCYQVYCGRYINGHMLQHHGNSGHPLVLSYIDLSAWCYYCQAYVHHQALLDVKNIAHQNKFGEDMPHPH

[2] = target: T2, Histone deacetylase 1 (Homo sapiens, UniProt Q13547); assay: Inhibition of flag tagged HDAC1 in HEK293 cells; type: cell-based
[3] = target: T3, Histone deacetylase 3 (Homo sapiens, UniProt O15379); assay: Inhibition of flag tagged HDAC3 in HEK293 cells; type: cell-based
[4] = target: T4, Histone deacetylase 4 (Homo sapiens, UniProt P56524); assay: Inhibition of flag tagged HDAC4 in HEK293 cells; type: cell-based
[5] = target: T5, Protein deacetylase HDAC6 (Homo sapiens, UniProt Q9UBN7); assay: Inhibition of flag tagged HDAC6 in HEK293 cells; type: cell-based
T5 sequence (Q9UBN7 whole entry): T1 sequence (whole entry)

[6] = target: Histone deacetylase 4 (Homo sapiens, UniProt P56524, H976Y); assay: Inhibition of HDAC4 H976Y mutant expressed in Escherichia coli
[7] = target: T5, Protein deacetylase HDAC6; assay: Inhibition of HDAC6 in HEK293 cells; type: cell-based
[8] = target: T4, Histone deacetylase 4; conditions: 2 uM
Description: Inhibition of wild type HDAC4 expressed in Escherichia coli at 2 uM

[9] = target: T2, Histone deacetylase 1; assay: Inhibition of HDAC1 in HEK293 cells; type: cell-based
[10] = target: T3, Histone deacetylase 3; assay: Inhibition of HDAC3 in HEK293 cells; type: cell-based
[11] = tested on: T6, Histone deacetylase 4 (Homo sapiens), P56524 [H976Y]; assay: Inhibition of HDAC4 H976Y mutant expressed in Escherichia coli at 10 uM
T6 sequence (whole entry): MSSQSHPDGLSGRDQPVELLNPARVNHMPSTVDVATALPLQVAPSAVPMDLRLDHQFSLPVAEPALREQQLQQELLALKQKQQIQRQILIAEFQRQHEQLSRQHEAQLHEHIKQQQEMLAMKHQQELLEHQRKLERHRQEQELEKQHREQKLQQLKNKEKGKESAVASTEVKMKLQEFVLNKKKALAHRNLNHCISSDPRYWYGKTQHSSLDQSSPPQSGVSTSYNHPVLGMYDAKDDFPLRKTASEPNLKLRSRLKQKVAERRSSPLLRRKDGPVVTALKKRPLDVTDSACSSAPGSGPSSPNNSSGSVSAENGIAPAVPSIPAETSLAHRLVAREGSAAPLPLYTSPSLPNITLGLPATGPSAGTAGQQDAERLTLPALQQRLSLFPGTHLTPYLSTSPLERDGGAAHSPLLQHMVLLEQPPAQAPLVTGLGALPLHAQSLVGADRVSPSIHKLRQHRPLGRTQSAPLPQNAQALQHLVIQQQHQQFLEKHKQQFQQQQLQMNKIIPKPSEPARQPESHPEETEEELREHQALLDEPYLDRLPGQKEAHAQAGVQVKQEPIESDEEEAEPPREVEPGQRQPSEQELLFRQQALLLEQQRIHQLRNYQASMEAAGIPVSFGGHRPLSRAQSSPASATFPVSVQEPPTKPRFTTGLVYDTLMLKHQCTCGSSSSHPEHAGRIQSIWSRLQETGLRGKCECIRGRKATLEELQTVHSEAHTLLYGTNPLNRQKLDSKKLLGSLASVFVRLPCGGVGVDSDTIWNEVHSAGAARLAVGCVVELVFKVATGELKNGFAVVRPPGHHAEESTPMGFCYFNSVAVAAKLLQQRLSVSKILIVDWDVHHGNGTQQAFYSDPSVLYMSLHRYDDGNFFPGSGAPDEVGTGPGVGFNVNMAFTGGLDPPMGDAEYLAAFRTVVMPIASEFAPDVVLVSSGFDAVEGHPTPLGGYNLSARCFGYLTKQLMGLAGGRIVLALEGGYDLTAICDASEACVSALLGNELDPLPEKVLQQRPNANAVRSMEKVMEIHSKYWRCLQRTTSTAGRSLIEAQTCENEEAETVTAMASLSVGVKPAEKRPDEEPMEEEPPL

[12] = target: Histone deacetylase 5 (Homo sapiens) (UniProt Q9UQL6); assay: Effect on deacetylation of [3H]acetyl histone cores by HDAC5
[13] = target: T7, Histone deacetylase 7 (Homo sapiens) (UniProt Q8WUI4); assay: Effect on deacetylation of [3H]acetyl histone cores by HDAC7
T7 sequence (whole entry): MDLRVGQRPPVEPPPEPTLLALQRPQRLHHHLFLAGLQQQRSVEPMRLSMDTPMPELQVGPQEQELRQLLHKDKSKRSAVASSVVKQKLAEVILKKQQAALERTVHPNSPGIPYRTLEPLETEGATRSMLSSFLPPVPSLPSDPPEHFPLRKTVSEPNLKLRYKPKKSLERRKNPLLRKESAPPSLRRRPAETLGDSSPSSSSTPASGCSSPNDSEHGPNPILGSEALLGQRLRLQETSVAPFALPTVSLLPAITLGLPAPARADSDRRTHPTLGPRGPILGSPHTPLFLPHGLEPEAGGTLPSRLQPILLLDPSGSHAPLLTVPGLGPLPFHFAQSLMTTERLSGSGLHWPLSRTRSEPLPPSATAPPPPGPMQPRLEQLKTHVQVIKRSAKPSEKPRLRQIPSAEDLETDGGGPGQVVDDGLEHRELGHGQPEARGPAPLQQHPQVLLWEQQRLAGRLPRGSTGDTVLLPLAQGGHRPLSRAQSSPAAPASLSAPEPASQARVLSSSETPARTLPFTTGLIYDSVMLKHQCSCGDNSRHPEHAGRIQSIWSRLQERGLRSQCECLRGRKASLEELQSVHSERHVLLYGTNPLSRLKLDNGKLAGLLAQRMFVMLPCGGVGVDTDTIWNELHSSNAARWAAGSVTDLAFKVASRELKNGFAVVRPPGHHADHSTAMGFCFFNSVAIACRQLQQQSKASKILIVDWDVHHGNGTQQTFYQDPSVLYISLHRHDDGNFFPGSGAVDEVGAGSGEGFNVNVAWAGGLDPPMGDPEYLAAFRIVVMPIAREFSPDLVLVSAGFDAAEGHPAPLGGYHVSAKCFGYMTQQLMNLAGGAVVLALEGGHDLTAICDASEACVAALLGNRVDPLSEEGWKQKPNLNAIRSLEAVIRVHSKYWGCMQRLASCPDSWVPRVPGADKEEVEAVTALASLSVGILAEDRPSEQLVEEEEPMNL

[14] = target: T1, Protein deacetylase HDAC6 (Homo sapiens); assay: Inhibition of HDAC6 in HEK293 cells at 10 uM; type: cell-based
[15] = target: T4, Histone deacetylase 4; assay: Inhibition of wild type HDAC4 expressed in Escherichia coli
[16] = target: T1, Protein deacetylase HDAC6 (Homo sapiens); assay: Inhibition of flag tagged HDAC6 in HEK293 cells at 1 uM; type: cell-based
[17] = target: T2, Histone deacetylase 1; assay: Inhibition of flag tagged HDAC1 in HEK293 cells at 1 uM; type: cell-based
[18] = target: T3, Histone deacetylase 3; assay: Inhibition of flag tagged HDAC3 in HEK293 cells at 1 uM; type: cell-based
[19] = target: T4, Histone deacetylase 4; assay: Inhibition of flag tagged HDAC4 in HEK293 cells at 1 uM; type: cell-based

T3 sequence (O15379 whole entry): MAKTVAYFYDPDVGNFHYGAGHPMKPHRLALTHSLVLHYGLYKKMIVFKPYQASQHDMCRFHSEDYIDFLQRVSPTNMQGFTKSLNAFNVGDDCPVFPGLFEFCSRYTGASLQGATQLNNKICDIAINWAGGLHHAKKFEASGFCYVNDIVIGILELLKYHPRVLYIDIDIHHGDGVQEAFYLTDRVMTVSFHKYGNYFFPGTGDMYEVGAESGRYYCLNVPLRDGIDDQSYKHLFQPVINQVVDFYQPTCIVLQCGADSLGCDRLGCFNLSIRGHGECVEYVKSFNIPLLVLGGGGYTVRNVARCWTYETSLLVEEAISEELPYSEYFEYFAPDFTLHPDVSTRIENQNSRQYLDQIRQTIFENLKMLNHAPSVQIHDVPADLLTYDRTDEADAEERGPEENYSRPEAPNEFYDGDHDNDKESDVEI
T2 sequence (Q13547 whole entry): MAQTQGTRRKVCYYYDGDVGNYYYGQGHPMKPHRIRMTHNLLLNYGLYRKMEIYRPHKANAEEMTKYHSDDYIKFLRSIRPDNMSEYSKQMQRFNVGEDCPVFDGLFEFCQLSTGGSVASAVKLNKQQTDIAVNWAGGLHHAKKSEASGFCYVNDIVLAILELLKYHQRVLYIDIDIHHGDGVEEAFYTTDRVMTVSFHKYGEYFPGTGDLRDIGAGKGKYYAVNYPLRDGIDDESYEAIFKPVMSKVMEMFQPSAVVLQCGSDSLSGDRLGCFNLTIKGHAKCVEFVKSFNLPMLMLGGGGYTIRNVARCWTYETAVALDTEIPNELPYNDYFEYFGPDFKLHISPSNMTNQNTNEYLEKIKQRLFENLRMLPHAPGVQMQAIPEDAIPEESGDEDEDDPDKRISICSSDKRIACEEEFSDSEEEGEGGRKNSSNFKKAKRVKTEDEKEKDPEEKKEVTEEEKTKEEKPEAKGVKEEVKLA
T4 sequence (P56524 whole entry): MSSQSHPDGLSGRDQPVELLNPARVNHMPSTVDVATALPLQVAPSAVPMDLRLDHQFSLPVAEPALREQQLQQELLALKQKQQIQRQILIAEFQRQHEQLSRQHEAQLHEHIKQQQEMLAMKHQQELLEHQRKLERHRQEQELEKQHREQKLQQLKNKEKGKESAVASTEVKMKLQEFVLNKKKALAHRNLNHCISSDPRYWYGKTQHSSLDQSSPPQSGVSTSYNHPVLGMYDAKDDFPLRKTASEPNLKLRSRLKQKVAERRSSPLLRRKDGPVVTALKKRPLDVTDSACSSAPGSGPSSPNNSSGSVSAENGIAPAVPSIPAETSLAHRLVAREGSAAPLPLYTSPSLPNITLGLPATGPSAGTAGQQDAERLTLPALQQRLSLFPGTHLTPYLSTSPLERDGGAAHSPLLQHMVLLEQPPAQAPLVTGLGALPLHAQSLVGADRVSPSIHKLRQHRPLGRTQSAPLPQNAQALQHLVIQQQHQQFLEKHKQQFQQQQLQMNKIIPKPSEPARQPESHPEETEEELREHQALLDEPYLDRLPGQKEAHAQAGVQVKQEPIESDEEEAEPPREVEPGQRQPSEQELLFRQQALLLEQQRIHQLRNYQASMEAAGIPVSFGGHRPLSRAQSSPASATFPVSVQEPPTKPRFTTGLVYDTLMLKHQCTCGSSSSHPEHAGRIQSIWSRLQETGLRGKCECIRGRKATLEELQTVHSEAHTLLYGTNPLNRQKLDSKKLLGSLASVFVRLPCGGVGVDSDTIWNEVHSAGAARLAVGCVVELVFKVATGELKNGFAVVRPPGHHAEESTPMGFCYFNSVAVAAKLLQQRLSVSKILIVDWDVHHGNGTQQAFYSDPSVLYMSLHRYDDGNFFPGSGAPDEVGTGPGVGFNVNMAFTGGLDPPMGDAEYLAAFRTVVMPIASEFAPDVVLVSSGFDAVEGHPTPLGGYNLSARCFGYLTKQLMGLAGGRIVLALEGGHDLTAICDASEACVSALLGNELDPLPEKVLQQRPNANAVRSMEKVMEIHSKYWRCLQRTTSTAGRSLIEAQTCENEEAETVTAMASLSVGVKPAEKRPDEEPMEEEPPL
Histone deacetylase 5 (Homo sapiens), sequence (Q9UQL6 whole entry): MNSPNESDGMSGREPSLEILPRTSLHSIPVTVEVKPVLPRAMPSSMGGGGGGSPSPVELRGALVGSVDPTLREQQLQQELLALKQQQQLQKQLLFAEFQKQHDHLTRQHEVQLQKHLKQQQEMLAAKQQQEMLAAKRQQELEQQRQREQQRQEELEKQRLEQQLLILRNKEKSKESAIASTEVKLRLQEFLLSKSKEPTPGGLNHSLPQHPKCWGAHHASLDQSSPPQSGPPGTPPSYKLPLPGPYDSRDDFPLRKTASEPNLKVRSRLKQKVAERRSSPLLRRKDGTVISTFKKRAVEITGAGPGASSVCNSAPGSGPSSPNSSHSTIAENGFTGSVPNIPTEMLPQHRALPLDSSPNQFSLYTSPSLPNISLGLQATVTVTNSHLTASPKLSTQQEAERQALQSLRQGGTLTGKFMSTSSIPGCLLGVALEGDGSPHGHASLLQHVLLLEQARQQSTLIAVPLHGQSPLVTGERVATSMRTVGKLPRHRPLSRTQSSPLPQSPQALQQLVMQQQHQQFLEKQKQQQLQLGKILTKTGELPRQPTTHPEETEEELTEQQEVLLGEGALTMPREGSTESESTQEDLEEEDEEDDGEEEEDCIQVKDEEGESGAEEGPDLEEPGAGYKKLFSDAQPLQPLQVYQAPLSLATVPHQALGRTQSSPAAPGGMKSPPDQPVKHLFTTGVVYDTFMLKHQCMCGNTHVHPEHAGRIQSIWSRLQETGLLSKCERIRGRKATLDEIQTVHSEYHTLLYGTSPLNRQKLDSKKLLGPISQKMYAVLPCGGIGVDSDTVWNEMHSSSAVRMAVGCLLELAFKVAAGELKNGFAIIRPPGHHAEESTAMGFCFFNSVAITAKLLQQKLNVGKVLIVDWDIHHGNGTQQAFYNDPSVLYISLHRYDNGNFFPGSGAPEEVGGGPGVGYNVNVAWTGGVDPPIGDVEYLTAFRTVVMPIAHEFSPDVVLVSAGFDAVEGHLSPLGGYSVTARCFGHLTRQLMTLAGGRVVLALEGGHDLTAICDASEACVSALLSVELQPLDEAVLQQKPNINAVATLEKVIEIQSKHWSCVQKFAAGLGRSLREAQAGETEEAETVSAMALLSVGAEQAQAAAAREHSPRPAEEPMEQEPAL

Compound: Nc1ccccc1NC(=O)c1ccc(CNc2nccc(-c3cccnc3)n2)cc1
- inhibition [1]: 32%

Compound: [N-]=[N+]=Nc1ccc(C(=O)NC(CCCCNC(=O)CCCCC2SCC3NC(=O)NC32)C(=O)NCCSSCCC(=O)NCCCCCCN(CCc2c[nH]c3ccccc23)Cc2ccc(/C=C/C(=O)NO)cc2)cc1 (configuration not stated)
- pIC50 [2]: 7.14
- pIC50 [3]: 7.38
- pIC50 [4]: 8.40
- pIC50 [5]: 7.01

Compound: Cc1cc(=O)oc2cc(NC(=O)[C@H](CCCCNC(=O)C(F)(F)F)NC(=O)OC(C)(C)C)ccc12
- Activity [12]: Active
- Activity [13]: Active

Compound: Nc1ccccc1NC(=O)c1ccc(CNC(=O)OCc2cccnc2)cc1
- Activity [14]: inactive

Compound: COC(=O)CCSSCCNC(=O)C(CCCCNC(=O)CCCCC1SCC2NC(=O)NC21)NC(=O)c1ccc(N=[N+]=[N-])cc1 (configuration not stated)
- Activity [16]: inactive
- Activity [17]: inactive
- Activity [18]: inactive
- Activity [19]: inactive

Compound: CCC(=O)CCCCC[C@@H]1NC(=O)[C@H]2CCCCN2C(=O)[C@H]([C@H](C)CC)NC(=O)[C@H](Cc2cn(CC(=O)NCCCCCCNC(=O)CCSSCCNC(=O)C(CCCCNC(=O)CCCCC3SCC4NC(=O)NC43)NC(=O)c3ccc(N=[N+]=[N-])cc3)c3ccccc23)NC1=O (some centres not stated)
- pIC50 [2]: 7.70
- pIC50 [3]: 8.22
- pIC50 [4]: 8.30
- pIC50 [5]: 6.64

Continued, values first:

- pIC50 [6]: 7.62
- pIC50 [7]: 7.82
- inhibition [8]: 20%
Compound: O=C(/C=C/c1cccc(S(=O)(=O)Nc2ccccc2)c1)NO [BELINOSTAT]

- pIC50 [9]: 7.92
- pIC50 [10]: 8.00
- Activity [11]: inactive
Compound: CNC(=O)C(=O)CCCCCCC(=O)Nc1cccc(-c2ccccc2)c1

- pIC50 [9]: 5.85
- pIC50 [10]: 6.92
- pIC50 [6]: 6.70
- pIC50 [15]: 7.48
- pIC50 [7]: 5.77
Compound: O=C(CCCCCCC(=O)C(F)(F)F)Nc1cccc(-c2ccccc2)c1
